This is an account of results in publication PMC13044524 (Molecular Cancer Therapeutics, 2025).

pIC50: −log10 of the molar value.

The test system of one series is MCF-7 cells. The series can be described thus: Cell proliferation assay, MCF-7. Format: cell-based. The conditions noted are these: Homo sapiens, MCF7, 144 h, read-out: IC50 E2-mediated proliferation.
The subject of a further series is uterine tissue. The series can be described thus: Rat uterine wet weight assay. Format: in vivo, Sprague–Dawley CD-IGS rats. The note with it: immature rats; for epithelia height of uterine tissue (histologic staining): 3 days, compared with vehicle; for uterine wet weight (UWW): once daily for 3 days.
Series [1] has as its system bone (femur and tibia) of OVX mice. The series can be described thus: Osteoporosis. The note with it: 12 weeks of treatment. Format: in vivo, C57BL/6 mice.

Consider `CCNCCc1ccc(CN(CC)c2cc(OC)ccc2[C@@H]2CCc3cc(O)ccc3C2)cc1` [elacestrant], for which the pIC50 in the series on MCF-7 cells is 9.52.

For `C[C@@H]1Cc2c([nH]c3ccccc23)[C@@H](c2c(F)cc(/C=C/C(=O)O)cc2F)N1CC(C)(C)F` [AZD9496, (E)-3-(3,5-Difluoro-4-((1R,3R)-2-(2-fluoro-2-methylpropyl)-3-methyl-2,3,4,9-tetrahydro-1H-pyrido[3,4-b]indol-1-yl)phenyl)acrylic acid], in the series with uterine tissue, the “epithelia height of uterine tissue (histologic staining)” value is recorded as “slightly increased” and the “uterine wet weight (UWW)” value was “did not affect uterine weight significantly”.

With `CC/C(=C(\c1ccccc1)c1ccc(OCCN(C)C)cc1)c1ccccc1` [Tamoxifen], in series [1], the “bone mineral density (BMD) of femur and tibia” value was “significantly increased BMD”. Moreover, in the series with uterine tissue, the “epithelia height of uterine tissue (histologic staining)” value is listed as “dramatically increased” and the “uterine wet weight (UWW)” value was “significantly increase UWW”.

`C[C@]12CC[C@@H]3c4ccc(O)cc4C[C@@H](CCCCCCCCC[S+]([O-])CCCC(F)(F)C(F)(F)F)[C@H]3[C@@H]1CC[C@@H]2O` (stereo partly drawn) [Fulvestrant]: the “bone mineral density (BMD) of femur and tibia” value in series [1] was “further decreased BMD”. Moreover, the “uterine wet weight (UWW)” value in the series with uterine tissue was “seemed to decrease uterine weight”. In addition, the pIC50 in the series with MCF-7 cells was 9.70.
